In series [1] the test system is BGC-823. The experiment in a line: Induction of cell cycle arrest in human BGC-823 cells assessed as accumulation of cells at G2/M phase at 0.6 uM incubated for 24 hrs by PI staining based flow cytometry method (reference value: 22.86%). Type of series: functional. For orientation: In flow cytometry, cells or beads pass a laser one at a time.
In the next series the test system is HCT-116. The experiment in a line: Antiproliferative activity against human HCT-116 cells assessed as cell growth inhibition incubated for 48 hrs by MTT assay. Type of series: functional, cell-based. Conditions: HCT-116, 48 h.
In the next series the test system is HepG2. The experiment in a line: Antiproliferative activity against human HepG2 cells assessed as cell growth inhibition incubated for 48 hrs by MTT assay. Conditions: HepG2, 48 h. Type of series: functional, cell-based. In general terms: Formazan colour is commonly taken as a measure of viable cells.
For series [2], the system named is BGC-823. Kind of series: Induction of mitochondrial dysfunction in human BGC-823 cells assessed as […] by measuring reduction in red fluorescence at 0.15 to 0.6 uM incubated for 24 hrs by inverted fluorescent microscopic analysis. Format: functional, cell-based. The conditions noted are these: dose 0.15-0.6 µM.
Series [3] concerns BGC-823. Kind of series: Induction of mitochondrial dysfunction in human BGC-823 cells assessed as […] by measuring increase in green fluorescence at 0.15 to 0.6 uM incubated for 24 hrs by inverted fluorescent microscopic analysis. Format: functional, cell-based. The conditions noted are these: dose 0.15-0.6 µM.
Series [4] has as its system BGC-823. The experiment in a line: Induction of apoptosis in human BGC-823 cells assessed as increase in cleaved-caspase 9 expression at 0.15 to 0.6 uM incubated for 24 hrs by Western blot analysis. The conditions noted are these: dose 0.15-0.6 µM. Type of series: functional, cell-based. Background: Immunoblotting shows a protein as a band on a membrane.
Series [5] deals with BGC-823. The experiment in a line: Induction of apoptosis in human BGC-823 cells assessed as early apoptotic cells at 0.6 uM incubated for 24 hrs by annexin-V-FITC and PI staining based flow cytometry analysis (reference value: 2.4%). Format: functional.
For series [6], the system named is BGC-823. The experiment in a line: Induction of apoptosis in human BGC-823 cells assessed as late apoptotic cells at 0.15 uM incubated for 24 hrs by annexin-V-FITC and PI staining based flow cytometry analysis (reference value: 0.6%). Type of series: functional.
Series [7] has as its system BGC-823. The experiment in a line: Induction of apoptosis in human BGC-823 cells assessed as late apoptotic cells at 0.6 uM incubated for 24 hrs by annexin-V-FITC and PI staining based flow cytometry analysis (reference value: 0.6%). Format: functional.
The test system of series [8] is BGC-823. Kind of series: Induction of apoptosis in human BGC-823 cells assessed as necrotic cells at 0.3 uM incubated for 24 hrs by annexin-V-FITC and PI staining based flow cytometry analysis (reference value: 0.6%). Format: functional.
For series [9], the system named is BGC-823. Kind of series: Induction of apoptosis in human BGC-823 cells assessed as reduction in total number of cells at 0.15 to 0.6 uM incubated for 24 hrs by Hoechst 33342 staining based flourescence microscopy method. The conditions noted are these: dose 0.15-0.6 µM. Format: functional, cell-based.
For series [10], the system named is BGC-823. Kind of series: Induction of apoptosis in human BGC-823 cells assessed as increase in number of apoptotic cells at 0.15 to 0.6 uM incubated for 24 hrs by Hoechst 33342 staining based flourescence microscopy method. Type of series: functional, cell-based. Conditions: dose 0.15-0.6 µM.
Series [11] relates to BGC-823. Kind of series: Induction of cell cycle arrest in human BGC-823 cells assessed as accumulation of cells at S phase at 0.15 uM incubated for 24 hrs by PI staining based flow cytometry method (reference value: 26.01%). Type of series: functional.
The subject of series [12] is BGC-823. The experiment in a line: Induction of cell cycle arrest in human BGC-823 cells assessed as accumulation of cells at S phase at 0.6 uM incubated for 24 hrs by PI staining based flow cytometry method (reference value: 26.01%). Type of series: functional.
Series [13] in a line: Toxicity in athymic BALB/c nude mouse assessed as effect on heart at 1.5 mg/kg, ip measured after 21 days by H and E staining based histopathological analysis. Type of series: organism-based. Conditions: in vivo, 504 h, time 21 day.

Activity and IC50 data for one compound are collected here from ChEMBL document CHEMBL5120866, “Design and Synthesis of Novel Celastrol Derivatives as Potential Anticancer Agents against Gastric Cancer Cells” (J Nat Prod, 2022).

The source made the active and inactive calls. The calls are words filed in the database; no cut-off is given here.

Regarding `CCOC(=O)c1cnn(CCCOC(=O)[C@]2(C)CC[C@]3(C)CC[C@]4(C)C5=CC=C6C(=CC(=O)C(O)=C6C)[C@]5(C)CC[C@@]4(C)[C@@H]3C2)c1`, the Activity in the series with BGC-823 [1] is reported as 34.73%; in the series with BGC-823 [5] it was 26%; in the series on BGC-823 [6], 0.5%; with BGC-823 [7], 21.7%; in the series with BGC-823 [8], 0.4%; in the series on BGC-823 [11], 26.07%. Moreover, the Activity with BGC-823 [12] is given as 24.75%; in series [13], “Non-Toxic”. Also, the IC50 with HCT-116 was 410 nM; with HepG2 it was 350 nM. Besides, the outcome in the series with BGC-823 [2], in the series with BGC-823 [3], in the series on BGC-823 [4], in the series with BGC-823 [9] and in the series on BGC-823 [10] was Active.

A word on the IC50: it is the concentration needed to halve the response being measured.
